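The compound was tested at five concentrations on cells cultured in 96-well plates, with a 48-hour exposure period. Here, GI50 denotes the concentration required for 50% inhibition of growth. TGI: total growth inhibition.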
System: MDA-MB-468 breast
Test: NCI tumour cell line growth inhibition, 48 h

**Q.** Which results are given for O=CN1N=C(c2cccc(Nc3ccnc4cc(Cl)ccc34)c2)CC1c1ccccc1 (centres undefined)?
**A.** GI50: 205 nM; TGI: 656 nM

**Q.** Which GI50 does the source give for O=C1C(=O)c2ccccc2C(O)=C1CCCc1ccc(C2CCCCC2)cc1 here?
**A.** 2200 nM

**Q.** And the TGI?
**A.** 21500 nM

**Q.** O=C(/C=C1\C(=O)N(Cc2ccccc2)c2ccccc21)c1ccc(OCCN2CCCCC2)cc1 was tested. Which GI50 did it give?
**A.** 1920 nM

**Q.** And the TGI?
**A.** 3800 nM

**Q.** What does the source list for COC1=CC(c2ccc[nH]2)=N/C1=C\c1[nH]c(C)c(CC(=O)OCc2ccccc2)c1C?
**A.** GI50: 595 nM; TGI: 2450 nM

**Q.** Which results are given for COC(=O)c1c2c(c(C)[n+]([O-])c1C)C(=O)C=C(NCc1cccc(Cl)c1)C2=O?
**A.** GI50: 225 nM; TGI: 732 nM

**Q.** COC(=O)Nc1nc2ccc(C(=O)c3ccccc3)cc2[nH]1 was tested. Which GI50 did it give?
**A.** 338 nM

**Q.** What about the TGI of the same compound?
**A.** > 100000 nM

**Q.** For Cn1c(-c2ccccc2)c(/C=C/C2=[N+](C)c3ccccc3C2(C)C)c2ccccc21, which GI50 is on record?
**A.** 343 nM

**Q.** What about the TGI of the same compound?
**A.** 2850 nM

**Q.** Which results are given for C[n+]1c2ccccc2nc2ccccc21?
**A.** GI50: 711 nM; TGI: 2690 nM

**Q.** With CCCCCCCCCCCCCC[n+]1ccc(C(N)=O)cc1 as the compound, how does the GI50 read?
**A.** 401 nM

**Q.** What about the TGI of the same compound?
**A.** 2760 nM

**Q.** What does the source list for Cc1cc(OCCOCCC(F)(F)P(=O)(O)O)ccc1CCc1cnc2c(N)nc3cc(CCC(=O)O)ccc3c2c1?
**A.** GI50: > 100000 nM; TGI: > 100000 nM

**Q.** Which results are given for C=C1C(=O)O[C@H]2[C@H]1CC/C(Cn1cc(-c3ccc(F)cc3)nn1)=C\CC[C@@]1(C)O[C@@H]21?
**A.** GI50: 421 nM; TGI: 1580 nM

**Q.** Which results are given for C=C1C(=O)O[C@H]2[C@H]1CC/C(COC(=O)CCCc1c[nH]c3ccccc13)=C\CC[C@@]1(C)O[C@@H]21?
**A.** GI50: 1760 nM; TGI: 4010 nM

**Q.** With Clc1ccc2nc(CI)c(CI)nc2c1 as the compound, how does the GI50 read?
**A.** 4700 nM

**Q.** What about the TGI of the same compound?
**A.** 19100 nM

**Q.** Which GI50 does the source give for Nc1nc2cc(CC[C@H]3C[C@@H](n4ccc5c(N)ncnc54)[C@H](O)[C@@H]3O)ccc2cc1Br here?
**A.** 234 nM

**Q.** What about the TGI of the same compound?
**A.** 7980 nM

**Q.** With CC(C)=CC(=O)N[C@H]1CC[C@]2(C)C3CC[C@]4(C)C(C(C)N(C)C)=CCC4C3CCC2[C@H]1O (some centres undefined) as the compound, how does the GI50 read?
**A.** 1650 nM

**Q.** What about the TGI of the same compound?
**A.** 6330 nM

**Q.** How did the GI50 turn out when CCCCCCCC(=O)SCC/C=C/[C@@H]1CC(=O)NCc2nc(cs2)C2=N[C@@](C)(CS2)C(=O)N[C@@H](C(C)C)C(=O)N1 was run?
**A.** < 11.9 nM

**Q.** What about the TGI of the same compound?
**A.** 1210 nM

**Q.** C[C@]12CC[C@H]3[C@@H](CC4SC(N)=NC45C/C(=N/NC(N)=O)CC[C@]35C)[C@@H]1CCC2=O (some centres undefined) was tested. Which GI50 did it give?
**A.** 1600 nM

**Q.** What about the TGI of the same compound?
**A.** 3170 nM

**Q.** With COc1ccc(NC(=O)c2sc3nc(C)c(C(=O)/C=C/c4cccc(OC)c4)cc3c2N)cc1 as the compound, how does the GI50 read?
**A.** 732 nM

**Q.** And the TGI?
**A.** 2240 nM

**Q.** C[C@H]1COCCN1c1cc(C2(S(=O)(=O)C3CC3)CC2)nc(-c2ccc(NC(=S)NCCO)cc2)n1 was tested. Which GI50 did it give?
**A.** < 10.8 nM

**Q.** And the TGI?
**A.** 93.6 nM

**Q.** How did the GI50 turn out when CN(C)CCCC1(c2ccc(F)cc2)OCc2cc(-c3cc4ccccc4s3)ccc21 (centres undefined) was run?
**A.** 1740 nM

**Q.** What about the TGI of the same compound?
**A.** 3410 nM

**Q.** Which GI50 does the source give for Cc1ccc2c(c1)C(=O)c1c-2c(OCCCN(C)C)nc2ccccc12 here?
**A.** 1430 nM

**Q.** What about the TGI of the same compound?
**A.** 3350 nM

**Q.** With COc1ccc(/C=C2\SC(=Nc3ccccc3)NC2=O)cc1 as the compound, how does the GI50 read?
**A.** 3180 nM

**Q.** What about the TGI of the same compound?
**A.** 22000 nM

**Q.** With CC(=O)O[C@H]1C(=O)[C@@]2(C)[C@H]([C@H](OC(=O)c3ccccc3)[C@]3(O)C[C@H](OC(=O)[C@H](OC(=O)OC[C@H]4COC(C)(C)O4)[C@@H](NC(=O)c4ccccc4)c4ccccc4)C(C)=C1C3(C)C)[C@]1(OC(C)=O)CO[C@@H]1C[C@@H]2O as the compound, how does the GI50 read?
**A.** 27.3 nM

**Q.** With Cn1ccnc1C(=O)/C=C/c1ccc(CNC(=O)c2ccc(S(F)(F)(F)(F)F)cc2)cc1 as the compound, how does the GI50 read?
**A.** 3540 nM

**Q.** What about the TGI of the same compound?
**A.** 8710 nM

**Q.** Which results are given for COc1ccc(/C(C#N)=C/c2cc(OC)c(OC)c(OC)c2)cc1?
**A.** GI50: 19200 nM; TGI: > 100000 nM

**Q.** For CCCCCCCCCCCCCCCCOP(=O)([O-])OCC[N+](C)(C)C, which GI50 is on record?
**A.** 1160 nM

**Q.** What about the TGI of the same compound?
**A.** 3560 nM

**Q.** Which GI50 does the source give for CC([C@H]1CC=C2C3CCC4=C[C@@H](N(C)C)CC[C@]4(C)C3CC[C@@]21C)N(C)C (some centres undefined) here?
**A.** 1420 nM

**Q.** And the TGI?
**A.** 4720 nM

**Q.** Which results are given for N#C/C(=N\Nc1ccccc1)C(=O)Nc1cc(-c2ccccc2)nn1-c1ccccc1?
**A.** GI50: 1420 nM; TGI: 5880 nM

**Q.** Which GI50 does the source give for C=C1SC(=Nc2ccccc2Cl)N(C(=O)c2sc3ccccc3c2Cl)C12CCCCC2 here?
**A.** 4910 nM

**Q.** And the TGI?
**A.** > 100000 nM

**Q.** With NC(N)=NC(N)=NCCCc1ccco1 as the compound, how does the GI50 read?
**A.** 81800 nM

**Q.** What about the TGI of the same compound?
**A.** 196000 nM

**Q.** Which results are given for O=C(CI)Nc1ccc(O)c2ccccc12?
**A.** GI50: 900 nM; TGI: 2570 nM

**Q.** With Cn1nc(C(F)(F)F)c(-c2cc(C(F)(F)F)cc(C(F)(F)F)c2)c1-c1ccc(OCc2ccc(Cl)cc2)cc1O as the compound, how does the GI50 read?
**A.** 1430 nM

**Q.** What about the TGI of the same compound?
**A.** 6360 nM

**Q.** What does the source list for O=C(Nc1ccc(F)cc1)Nc1ccc(Br)c(C(F)(F)F)c1?
**A.** GI50: 2220 nM; TGI: 9540 nM

**Q.** What does the source list for C=C1C(=O)O[C@H]2[C@H]1CC/C(COC(=O)OC/C1=C/CC[C@@]3(C)O[C@H]3[C@H]3OC(=O)[C@@H](CN(C)C)[C@@H]3CC1)=C\CC[C@@]1(C)O[C@@H]21?
**A.** GI50: 1350 nM; TGI: 4000 nM

**Q.** Which GI50 does the source give for C[C@H]1CNC(=O)c2cnn3ccc(nc23)N[C@H](C)c2cc(F)ccc2O1 here?
**A.** 1850 nM

**Q.** And the TGI?
**A.** 14600 nM
